Our source for the pest or weed control values is US10820591B2, “Substituted sulfonyl amides for controlling animal pests” (Bayer Aktiengesellschaft, priority 2016, dated 2020).

This experiment concerns Meloidogyne incognita. Briefly: Meloidogyne incognita test (sand, lettuce, gall formation). In kind it is in vivo. The settings on record: Meloidogyne incognita, 336 h, 20 ppm, after 14 days; read-out: nematicidal efficacy (formation of galls). How it is done: Meloidogyne incognita Test [table] To produce a suitable active compound preparation, 1 part by weight of active compound is mixed with the stated amount of solvent and the concentrate is diluted to the desired concentration with water. Vessels are filled with sand, active compound solution, an egg/larvae suspension of the southern root-knot nematode (Meloidogyne incognita) and lettuce seeds. The lettuce seeds germinate and the plants develop. The galls develop on the roots. After 14 days, the nematicidal efficacy in % is determined by the formation of galls. 100% means that no galls were found; 0% means that the number of galls on the treated plants corresponds to the untreated control.
Turning to `O=C(NS(=O)(=O)c1ccc(Cl)cc1)c1cn(Cc2c(F)cccc2F)cn1` [I-001], the pest or weed control at 20 ppm is 90%.
To `COc1ccc(Cl)c(S(=O)(=O)NC(=O)c2cn(Cc3c(F)cccc3F)cn2)c1` [I-002] belongs 90%.
In the case of `O=C(NS(=O)(=O)c1ccccc1Cl)c1cn(Cc2c(F)cccc2F)cn1` [I-003], the pest or weed control at 20 ppm amounted to 90%.
The result for `Cc1nc(C(=O)NS(=O)(=O)C(C)C)cn1-c1c(F)cccc1F` [I-005] reads 100%; that for `O=C(NS(=O)(=O)c1ccccc1Cl)c1ncn(CCC(F)(F)F)c1I` [I-008], 100%.
The result for `CC(C)S(=O)(=O)NC(=O)c1ncn(CCC(F)(F)F)c1Br` [I-009] reads 90%; that for `O=C(NS(=O)(=O)c1ccccc1Cl)c1ncn(CCC(F)(F)F)c1Br` [I-011], 70%; that for `O=C(NS(=O)(=O)c1ccc(Cl)cc1)c1ncn(CCC(F)(F)F)c1Cl` [I-012], 100%.
Consider `O=C(NS(=O)(=O)c1ccc(Cl)cc1Cl)c1ncn(CC(F)(F)F)c1Cl` [I-013], for which the pest or weed control at 20 ppm worked out at 70%.
To `O=C(NS(=O)(=O)c1ccc(Cl)cc1Cl)c1cn(CC(F)(F)F)cn1` [I-014] belongs 90%; to `O=C(NS(=O)(=O)c1cc(Cl)ccc1Cl)c1ncn(CCC(F)(F)F)c1Cl` [I-015], 90%.
To `O=C(NS(=O)(=O)c1c(Cl)cccc1Cl)c1ncn(CC(F)(F)F)c1Cl` [I-016] belongs 90%.
On to `Cc1ccccc1S(=O)(=O)NC(=O)c1cn(CCC(F)(F)F)cn1` [I-017], for which the pest or weed control at 20 ppm amounted to 90%.
The result for `O=C(NS(=O)(=O)c1cccc(C(F)(F)F)c1)c1ncn(CCC(F)(F)F)c1Cl` [I-018] reads 90%; that for `O=C(NS(=O)(=O)c1cccc(C(F)(F)F)c1)c1cn(CC(F)(F)F)cn1` [I-019], 90%.
As to `O=C(NS(=O)(=O)c1cccc(Cl)c1)c1ncn(CCC(F)(F)F)c1Cl` [I-020], the pest or weed control at 20 ppm was 90%.
On to `O=C(NS(=O)(=O)c1ccc(C(F)(F)F)cc1)c1ncn(CCC(F)(F)F)c1Cl` [I-021], for which the pest or weed control at 20 ppm worked out at 90%.
Take `Cc1ccc(S(=O)(=O)NC(=O)c2cn(CCC(F)(F)F)cn2)cc1` [I-022]: the pest or weed control at 20 ppm was 90%.
In the case of `Cc1ccc(S(=O)(=O)NC(=O)c2ncn(CC(F)(F)F)c2Cl)cc1` [I-023], the pest or weed control at 20 ppm came to 90%.
On to `Cc1ccc(S(=O)(=O)NC(=O)c2cn(CC(F)(F)F)cn2)cc1` [I-024], for which the pest or weed control at 20 ppm was found to be 90%.
With `O=C(NS(=O)(=O)c1ccc(Cl)cc1)c1cn(CC(F)(F)F)cn1` [I-025], the pest or weed control at 20 ppm was found to be 90%.
Regarding `COc1ccc(S(=O)(=O)NC(=O)c2cn(CCC(F)(F)F)cn2)cc1` [I-026], the pest or weed control at 20 ppm came out at 90%.
As to `COc1ccc(S(=O)(=O)NC(=O)c2cn(CC(F)(F)F)cn2)cc1` [I-027], the pest or weed control at 20 ppm was found to be 90%.
With `O=C(NS(=O)(=O)Cc1ccccc1)c1ncn(CC(F)(F)F)c1Cl` [I-029], the pest or weed control at 20 ppm was found to be 70%.
As for `O=C(NS(=O)(=O)c1ccc2c(c1Cl)OC(F)(F)O2)c1ncn(CCC(F)(F)F)c1Cl` [I-030], the pest or weed control at 20 ppm came out at 90%.
For the compound `CC(=O)Oc1ccc(S(=O)(=O)NC(=O)c2ncn(CCC(F)(F)F)c2Cl)cc1` [I-031], the pest or weed control at 20 ppm stood at 90%.
As to `O=C(NS(=O)(=O)c1ccc(OC(F)(F)F)cc1)c1ncn(CCC(F)(F)F)c1Cl` [I-033], the pest or weed control at 20 ppm is 90%.
With `CC(C)Oc1ccc(S(=O)(=O)NC(=O)c2ncn(CCC(F)(F)F)c2Cl)cc1` [I-034], the pest or weed control at 20 ppm amounted to 90%.
With `COc1cc(C)c(S(=O)(=O)NC(=O)c2ncn(CCC(F)(F)F)c2Cl)c(C)c1` [I-036], the pest or weed control at 20 ppm turned out to be 100%.
On to `CCCn1cnc(C(=O)NS(=O)(=O)c2ccccc2)c1Cl` [I-038], for which the pest or weed control at 20 ppm was 90%.
The result for `CCCn1cnc(C(=O)NS(=O)(=O)c2ccc(OC)cc2)c1Cl` [I-039] reads 100%; that for `CCCn1cnc(C(=O)NS(=O)(=O)c2ccccc2Cl)c1Cl` [I-040], 70%; that for `CCCn1cnc(C(=O)NS(=O)(=O)c2cccc(Cl)c2)c1Cl` [I-041], 100%.
Consider `CCCn1cnc(C(=O)NS(=O)(=O)c2cccc(OC)c2)c1Cl` [I-043], for which the pest or weed control at 20 ppm was 100%.
Take `CC(C)CCn1cnc(C(=O)NS(=O)(=O)c2ccccc2)c1Cl` [I-044]: the pest or weed control at 20 ppm was determined as 100%.
Regarding `COc1ccc(S(=O)(=O)NC(=O)c2ncn(CCC(C)C)c2Cl)cc1` [I-045], the pest or weed control at 20 ppm was determined as 100%.
In the case of `CC(C)CCn1cnc(C(=O)NS(=O)(=O)c2ccc(Cl)cc2)c1Cl` [I-046], the pest or weed control at 20 ppm is 100%.
Consider `COc1cccc(S(=O)(=O)NC(=O)c2ncn(CCC(C)C)c2Cl)c1` [I-047], for which the pest or weed control at 20 ppm turned out to be 100%.
In the case of `COc1ccccc1S(=O)(=O)NC(=O)c1ncn(CCC(C)C)c1Cl` [I-048], the pest or weed control at 20 ppm was 90%.
Regarding `O=C(NS(=O)(=O)c1ccccc1)c1ncn(CCCCl)c1Cl` [I-049], the pest or weed control at 20 ppm was found to be 90%.
Consider `COc1ccc(S(=O)(=O)NC(=O)c2ncn(CCCCl)c2Cl)cc1` [I-050], for which the pest or weed control at 20 ppm worked out at 90%.
Turning to `O=C(NS(=O)(=O)c1cccc(Cl)c1)c1ncn(CCCCl)c1Cl` [I-051], the pest or weed control at 20 ppm amounted to 90%.
As for `O=C(NS(=O)(=O)c1ccc(Cl)cc1)c1ncn(CCCCl)c1Cl` [I-052], the pest or weed control at 20 ppm was 90%.
To `COc1cccc(S(=O)(=O)NC(=O)c2ncn(CCCCl)c2Cl)c1` [I-053] belongs 90%.
With `O=C(NS(=O)(=O)c1ccccc1)c1ncn(CCOC(F)(F)F)c1Cl` [I-054], the pest or weed control at 20 ppm is 90%.
Turning to `COc1ccc(S(=O)(=O)NC(=O)c2ncn(CCOC(F)(F)F)c2Cl)cc1` [I-055], the pest or weed control at 20 ppm came to 90%.
As to `O=C(NS(=O)(=O)c1cccc(Cl)c1)c1ncn(CCOC(F)(F)F)c1Cl` [I-056], the pest or weed control at 20 ppm amounted to 90%.
For the compound `O=C(NS(=O)(=O)c1ccc(Cl)cc1)c1ncn(CCOC(F)(F)F)c1Cl` [I-057], the pest or weed control at 20 ppm stood at 100%.
On to `COc1cccc(S(=O)(=O)NC(=O)c2ncn(CCOC(F)(F)F)c2Cl)c1` [I-058], for which the pest or weed control at 20 ppm is 70%.
For the compound `O=C(NS(=O)(=O)c1cccc(Cl)c1)c1ncn(C2CC2C(F)(F)F)c1Cl` (centres unmarked) [I-061], the pest or weed control at 20 ppm worked out at 90%.
For the compound `O=C(NS(=O)(=O)c1ccc(Cl)cc1)c1ncn(C2CC2C(F)(F)F)c1Cl` (centres unmarked) [I-062], the pest or weed control at 20 ppm is 90%.
For the compound `COc1cccc(S(=O)(=O)NC(=O)c2ncn(C3CC3C(F)(F)F)c2Cl)c1` (centres unmarked) [I-063], the pest or weed control at 20 ppm was found to be 100%.
As for `COc1ccccc1S(=O)(=O)NC(=O)c1ncn(C2CC2C(F)(F)F)c1Cl` (centres unmarked) [I-064], the pest or weed control at 20 ppm came to 100%.
For the compound `O=C(NS(=O)(=O)c1cccc(Cl)c1)c1ncn(C2CCCC2C(F)(F)F)c1Cl` (centres unmarked) [I-065], the pest or weed control at 20 ppm was 90%.
In the case of `O=C(NS(=O)(=O)c1ccc(Cl)cc1)c1ncn(C2CCCC2C(F)(F)F)c1Cl` (centres unmarked) [I-066], the pest or weed control at 20 ppm came out at 90%.
Turning to `COc1cccc(S(=O)(=O)NC(=O)c2ncn(C3CCCC3C(F)(F)F)c2Cl)c1` (centres unmarked) [I-067], the pest or weed control at 20 ppm was 70%.
On to `COc1ccccc1S(=O)(=O)NC(=O)c1ncn(C2CCCC2C(F)(F)F)c1Cl` (centres unmarked) [I-068], for which the pest or weed control at 20 ppm was 90%.
As for `CC(CC(F)(F)F)n1cnc(C(=O)NS(=O)(=O)c2ccccc2)c1Cl` (centres unmarked) [I-069], the pest or weed control at 20 ppm is 100%.
The result for `CC(CC(F)(F)F)n1cnc(C(=O)NS(=O)(=O)c2ccccc2Cl)c1Cl` (centres unmarked) [I-071] reads 100%.
The result for `CC(CC(F)(F)F)n1cnc(C(=O)NS(=O)(=O)c2cccc(Cl)c2)c1Cl` (centres unmarked) [I-072] reads 100%.
The result for `COc1cccc(S(=O)(=O)NC(=O)c2ncn(C(C)CC(F)(F)F)c2Cl)c1` (centres unmarked) [I-074] reads 100%; that for `COc1ccccc1S(=O)(=O)NC(=O)c1ncn(C(C)CC(F)(F)F)c1Cl` (centres unmarked) [I-075], 70%; that for `COc1ccc(S(=O)(=O)NC(=O)c2ncn(CC(F)(F)C(F)(F)F)c2Cl)cc1` [I-076], 90%.
For the compound `O=C(NS(=O)(=O)c1ccccc1)c1ncn(CC(F)(F)C(F)(F)F)c1Cl` [I-077], the pest or weed control at 20 ppm was 100%.
Take `O=C(NS(=O)(=O)c1ccc(Cl)cc1)c1ncn(CC(F)(F)C(F)(F)F)c1Cl` [I-078]: the pest or weed control at 20 ppm came to 100%.
As for `O=C(NS(=O)(=O)c1cccc(Cl)c1)c1ncn(CC(F)(F)C(F)(F)F)c1Cl` [I-079], the pest or weed control at 20 ppm is 100%.
As for `O=C(NS(=O)(=O)c1ccccc1Cl)c1ncn(CC(F)(F)C(F)(F)F)c1Cl` [I-080], the pest or weed control at 20 ppm is 90%.
Take `COc1ccccc1S(=O)(=O)NC(=O)c1ncn(CC(F)(F)C(F)(F)F)c1Cl` [I-081]: the pest or weed control at 20 ppm came out at 90%.
As for `COc1cccc(S(=O)(=O)NC(=O)c2ncn(CC(F)(F)C(F)(F)F)c2Cl)c1` [I-082], the pest or weed control at 20 ppm was 100%.
Take `O=C(NS(=O)(=O)Cc1ccc(Cl)cc1)c1ncn(CCC(F)(F)F)c1Cl` [I-084]: the pest or weed control at 20 ppm was 100%.
In the case of `O=C(NS(=O)(=O)c1cc(Cl)c(Cl)s1)c1ncn(CCC(F)(F)F)c1Cl` [I-086], the pest or weed control at 20 ppm is 70%.
To `COc1cc(OC)cc(S(=O)(=O)NC(=O)c2ncn(CCC(F)(F)F)c2Cl)c1` [I-087] belongs 70%; to `CCOc1ccc(S(=O)(=O)NC(=O)c2ncn(CCC(F)(F)F)c2Cl)cc1` [I-088], 90%; to `CSc1ccc(S(=O)(=O)NC(=O)c2ncn(CCC(F)(F)F)c2Cl)cc1` [I-089], 100%.
